Here are results for 2 compounds from patent EP0613481B1, “TRIAMINO PLATINUM COMPLEXES AND A METHOD FOR THE SYNTHESIS THEREOF” (priority 1991, dated 1993).

Series [1] concerns L 1210 murine leukemia cell line. Description: 24 hours-thymidine uptake cytotoxicity, continuous exposition to the drugs. The series is classed as cell-based. As to conditions: for IC50: L1210, Mean ±SD, read-out: IC50 (Concentration producing 50% of inhibition).
For a further series, the system named is P388 leukemic cells. Description: In vivo compared antitumor activity assay in mice infected with P388 leukemic cells. As to conditions: single administration.
The next series deals with L 1210/cis-DDP cell line. As to conditions: for IC50: read-out: IC50 (Concentration producing 50% of inhibition), L1210/cis-DDP, Mean ±SD.
In series [2] the test system is P388 murine leukemic cells. Description: In vitro cytotoxic activity. It is filed as cell-based. As to conditions: at least comparable with cis-DDP.
The test system of series [3] is K562 human erhytroleukemic cells. Description: In vitro cytotoxic activity. The series is classed as cell-based. As to conditions: at least comparable with cis-DDP.
The next series deals with Jurkat human cells. Description: In vitro cytotoxic activity. It is filed as cell-based. As to conditions: at least comparable with cis-DDP.
The conditions of series [4]: mouse, in vivo, ip.
Series [5] is described as follows: Acute intraperitoneal toxicity and renal toxicity in mice. As to conditions: acute intraperitoneal administration, dissolved into 0.9% aqueous NaCl.

As to `N.N.[Cl][Pt][Cl]` [cis-DDP, cis-platinum, reference compound], the IC50 turned out to be 840 ± 90 nM in series [1] and 9600 ± 2800 nM with L 1210/cis-DDP cell line. For the same compound, the “ILS (highest increase in life span)” value in the series with P388 leukemic cells (8 mg/kg) was 75%. In the series with P388 leukemic cells (decrease, 8 mg/kg (maximum tolerated dose)), the “percent body weight variation” value is 10.6%.

For “cis-diamino-chloro-4-[diethylammoniumethoxycarbonylphenyl]amino-platinum (II)^+ bis-chloride monohydrate [cis-DPR]”, the IC50 in series [1] worked out at 510 ± 80 nM; in the series on L 1210/cis-DDP cell line it was 970 ± 170 nM. The “activity relative to cis-DDP (times more active)” value in series [1] (parental L 1210 cell line) is “about 1.6 times”. Besides, the “ILS (highest increase in life span)” value in the series on P388 leukemic cells (21 mg/kg) is 75%. Also, the “percent body weight variation” value in the series with P388 leukemic cells (increase, 21 mg/kg) is recorded as 4.5%. The cytotoxic activity result (in series [2]; in series [3]; with Jurkat human cells) was “significant cytotoxyc activity” each time. Besides, the “activity relative to cis-DDP (times greater, from IC50s)” value in the series on L 1210/cis-DDP cell line (L 1210/cis-DDP cell line) is “about 10 times”. The “kidney damages (plasma BUN increase, examination of renal tubules)” value in series [4] was “no evaluable kidney damages”. Besides, the LD50 in series [5] was 39.3 mg/kg.
